This is an account of results in PubChem BioAssay AID651677 (The Scripps Research Institute Molecular Screening Center, 2012).

Molecules are shown by their SMILES. The source made the active and inactive calls. The rule behind the calls is not given here.

This test deals with Perilipin-5 (Homo sapiens) + 1-acylglycerol-3-phosphate O-acyltransferase ABHD5 (Homo sapiens) (UniProt Q00G26+Q8WTS1). Put plainly: blockers of ABHD5 binding to perilipin-5 – biochemical, luminescence, dose response (AID 651677). To be noted: ABHD5-PLIN5 interaction.
Perilipin-5 (Homo sapiens) + 1-acylglycerol-3-phosphate O-acyltransferase ABHD5 (Homo sapiens), sequence (Q00G26 whole entry, looked up): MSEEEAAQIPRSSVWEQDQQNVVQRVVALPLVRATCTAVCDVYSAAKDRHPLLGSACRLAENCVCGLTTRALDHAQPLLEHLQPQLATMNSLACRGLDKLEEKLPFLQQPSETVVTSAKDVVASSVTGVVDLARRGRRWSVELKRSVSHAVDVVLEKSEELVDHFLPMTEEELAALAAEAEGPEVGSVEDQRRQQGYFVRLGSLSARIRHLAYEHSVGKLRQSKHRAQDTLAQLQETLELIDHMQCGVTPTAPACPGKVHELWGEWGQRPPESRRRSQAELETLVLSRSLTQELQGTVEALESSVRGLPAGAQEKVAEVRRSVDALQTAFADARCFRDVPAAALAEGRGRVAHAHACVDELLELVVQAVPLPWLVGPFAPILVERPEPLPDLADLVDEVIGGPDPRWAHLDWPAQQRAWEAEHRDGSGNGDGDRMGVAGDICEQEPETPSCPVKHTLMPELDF
Perilipin-5 (Homo sapiens) + 1-acylglycerol-3-phosphate O-acyltransferase ABHD5 (Homo sapiens), sequence (Q8WTS1 whole entry, looked up): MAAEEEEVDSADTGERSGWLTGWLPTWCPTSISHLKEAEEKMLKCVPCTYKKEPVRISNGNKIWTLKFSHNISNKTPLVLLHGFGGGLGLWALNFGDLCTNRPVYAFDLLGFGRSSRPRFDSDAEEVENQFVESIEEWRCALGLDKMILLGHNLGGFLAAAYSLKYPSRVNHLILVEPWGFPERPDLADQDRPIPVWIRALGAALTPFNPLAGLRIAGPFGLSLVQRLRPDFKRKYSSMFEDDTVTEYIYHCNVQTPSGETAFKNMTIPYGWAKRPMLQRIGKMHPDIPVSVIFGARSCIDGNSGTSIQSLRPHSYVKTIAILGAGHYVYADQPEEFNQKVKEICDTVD

Consider `CSc1nnc(NC(=O)c2nc(S(=O)(=O)Cc3cccc(C)c3)ncc2Cl)s1`, for which the IC50 was 2.69 µM. As for `O=C(NCc1ccccc1)C(c1ccccc1)n1c(=O)c(-c2ccco2)nc2ccccc21` (configuration not stated), the figure is 2.8 µM. As for `CC(=O)Nc1ccc(OCc2cn(CC(=O)c3ccc(O)cc3)nn2)cc1`, the figure is 2.32 µM; as for `COc1cc2c(cc1OC)C(C)N(CCc1ccc(Cl)cc1)CC2` (configuration not stated), “inactive”; as for `CCOC(=O)C1C(OC(=O)c2ccccc2)CC2CCC1N2C` (configuration not stated), 9.39 µM.

On to `CC(=O)Cc1cc(O)c2ccccc2c1OC(=O)c1ccc(Br)cc1`, for which the IC50 was 2.52 µM.

For the compound `CCCCCNC(=O)C(c1ccccc1F)n1c(=O)c(-c2ccco2)nc2ccccc21` (configuration not stated), the IC50 was 0.862 µM. For `O=C(CF)N(O)c1ccc(C=Cc2ccccc2)cc1` the value was > 39.9 µM (inactive); for `FC(F)(F)c1cccc(NC(=S)N(CCCN2CCCC2)Cc2cccn2Cc2ccc(Cl)cc2)c1`, “inactive”. Turning to `C#CCN(C[C@@H]1[C@@H](OC(=O)NC2CCCC2)[C@@H](OC(=O)NC2CCCC2)Cn2c(=O)ccc(=O)n21)S(=O)(=O)c1ccc(C)cc1`, the IC50 is 3.69 µM. As for `Cc1ccc(S(=O)(=O)N2C[C@@]3(O)Cn4c(=O)ccc(=O)n4C[C@@]3(OC(=O)NCC3CCCCC3)C2)cc1`, the figure is 3.99 µM; as for `Cc1cccc(C)c1OCc1cn(CC(=O)c2ccc(O)cc2)nn1`, 2.83 µM; as for `CCOC(=O)/C(=C\c1ccc(Cl)cc1)c1nc2sc(C)c(C)c2c(=O)[nH]1`, 0.75 µM. As for `CCCCn1c(SCC(=O)NCc2ccco2)nnc1-c1ccoc1C`, the figure is 4.82 µM; as for `CC(=O)C1=C(c2cccc([N+](=O)[O-])c2)N(C(C)=O)n2c(C)nnc2S1`, 2.86 µM; as for `Cc1cccc(C)c1NC(=O)C(c1ccnc2ccccc12)n1c(=O)c(-c2ccco2)nc2ccccc21` (configuration not stated), 3.55 µM.

As to `O=C(NCc1ccccc1)C(c1cccc2ccccc12)n1c(=O)c(-c2ccco2)nc2ccccc21` (configuration not stated), the IC50 is 2.23 µM. As for `COC(=O)c1cc(=O)n(Cc2ccco2)c(=Nc2ccc(F)cc2)s1`, the figure is 3.68 µM; as for `CCC(c1nc2ccccc2[nH]1)n1c(=O)c(-c2ccco2)nc2ccccc21` (configuration not stated), 3.11 µM. For `CN(C)c1ccc(Cc2cc3c(O)ccc(O)c3cc(Cc3ccc(N(C)C)cc3)c2=O)cc1` the value was 1.99 µM; for `Cc1cccc(C)c1NC(=O)C(c1ccncc1)n1c(=O)c(-c2ccco2)nc2ccccc21` (configuration not stated), “inactive”; for `CC1=CC(C)(C)Nc2ccc(OC(=O)CN3C(=O)C4CCCCC4C3=O)cc21` (configuration not stated), 2.5 µM. Consider `CC1Sc2ccc(S(=O)(=O)N3CCC(C(=O)NCc4ccc(Cl)cc4)CC3)cc2NC1=O` (configuration not stated), for which the IC50 entry is “inactive”. For `O=C(COc1ccccc1Cl)Nc1ccc(N2CCCC2)cc1` the value was > 39.9 µM (inactive). For `O=C(/C=C/c1ccc(NC(=O)c2ccccc2-c2ccccc2C(=O)O)cc1)c1ccccc1` the value was 7.14 µM; for `CCN1CCN(Cc2ccc(NC(=O)c3ccc(C)c(/C=C/c4cnc(Nc5cc(N6CCNCC6)nc(C)n5)cn4)c3)cc2C(F)(F)F)CC1`, 2.58 µM. For `CN1CCC[C@@H]1CCO[C@](C)(c1ccccc1)c1ccc(Cl)cc1` the value was “inactive”; for `COc1cccc2sc(N(CCCN(C)C)C(=O)COc3ccc(Cl)cc3)nc12`, “inactive”. On to `O=C(NCc1ccccc1)C(c1ccccc1F)n1c(=O)c(-c2ccco2)nc2ccccc21` (configuration not stated), for which the IC50 was 2.27 µM. As for `CCN(CC)CCNC(=O)c1ccc(NC(=O)c2cn(-c3ccccc3)nc2-c2cccs2)cc1`, the entry is “inactive”. As for `COc1cc(OC)cc(C(=O)NC(=S)N(Cc2ccccc2)C(C)C)c1`, the entry is “inactive”. As for `CN1[C@@H]2CC[C@H]1CC(OC1c3ccccc3CCc3ccccc31)C2` (some centres not stated), the figure is 2.49 µM; as for `O=C(NCc1ccccc1)C(C1CC1)n1c(=O)c(-c2ccco2)nc2ccccc21` (configuration not stated), 7.2 µM. With `C=CC(=O)N1c2ccccc2Sc2ccc(NC(=O)OCC)cc21`, the IC50 was 6.05 µM. For `COC(=O)c1ccc(Cn2cc(/C=C\[N+](=O)[O-])c3ccccc32)o1` the value was 6.26 µM; for `CCOC(=O)c1c(C)oc2c1c(CN1CCN(CCO)CC1)c(O)c1ccccc12`, 1.81 µM; for `Cc1ccc(/C=C/C(=O)c2cc(Br)ccc2OC(=O)c2ccco2)cc1`, 0.922 µM. As for `COc1ccc(NC(=O)C(c2ccccc2)n2c(=O)c(-c3ccco3)nc3ccccc32)cc1` (configuration not stated), the IC50 was 8.79 µM.

`CN(C)CCOc1ccc(/C(=C(/CCCl)c2ccccc2)c2ccccc2)cc1`: the IC50 was 1.38 µM. For `COc1ccc(NC(=O)C(c2cccc3ccccc23)n2c(=O)c(-c3ccco3)nc3ccccc32)cc1` (configuration not stated) the value was “inactive”; for `O=C(NC1CCCCC1)C(c1cc2ccccc2o1)n1c(=O)c(-c2ccco2)nc2ccccc21` (configuration not stated), 1.36 µM; for `CCN1C/C(=C/c2ccc(OC)c(O)c2)C(=O)/C(=C/c2ccc(OC)c(O)c2)C1`, 5.66 µM. For `COc1ccc(NC(=O)C(c2ccc(OC)cc2)n2c(=O)c(-c3ccco3)nc3ccccc32)cc1` (configuration not stated) the value was 6.13 µM; for `CC1(C)C2CCC(CN=C(N)CSS(=O)(=O)O)C1C2` (configuration not stated), 4.27 µM. For `CC(C)(C)NC(=O)C(c1cccc2ccccc12)n1c(=O)c(-c2ccco2)nc2ccccc21` (configuration not stated) the value was 2.39 µM; for `CC1=CC(C)(C)Nc2ccc(OC(=O)CN3C(=O)c4cccc5cccc(c45)C3=O)cc21`, 6.89 µM; for `Cc1ccc(CC2(OCCN(C)C)CCC(C(C)(C)C)CC2)cc1` (configuration not stated), 8.61 µM.

For the compound `CCc1nnc(NC(=O)c2nc(S(=O)(=O)Cc3ccccc3)ncc2Cl)s1`, the IC50 is 4.14 µM.

Regarding `Cc1cccc(C)c1NC(=O)C(c1cccc2ccccc12)n1c(=O)c(-c2ccco2)nc2ccccc21` (configuration not stated), the IC50 is 1.81 µM. As to `CC1=CC(C)(C)Nc2ccc(OC(=O)CN3C(=O)CCC3=O)cc21`, the IC50 is 2.2 µM. For the compound `C#CCN(C[C@@H]1[C@@H](OC(=O)NCCCCCC)[C@@H](OC(=O)NCCCCCC)Cn2c(=O)ccc(=O)n21)S(=O)(=O)c1ccc(C)cc1`, the IC50 was 4.74 µM. On to `Cc1cccc(C)c1NC(=O)C(c1ccc(C#N)cc1)n1c(=O)c(-c2ccco2)nc2ccccc21` (configuration not stated), for which the IC50 was 2.45 µM. For `N#Cc1ccc(C(C(=O)NCc2ccccc2)n2c(=O)c(-c3ccco3)nc3ccccc32)cc1` (configuration not stated) the value was 1.56 µM. As for `CC(=O)Oc1ccc(C23c4ccccc4C2(OC(C)=O)c2cc(OC(C)=O)ccc23)cc1` (configuration not stated), the figure is 0.72 µM; as for `COC/C=C/C1=CC2=CC(=O)C(C)(OC(=O)C3CCCC3)C(=O)C2=CO1` (configuration not stated), 1.75 µM; as for `Cc1cccc(NC(=O)CSc2nnc(-c3ccco3)c(-c3ccco3)n2)c1`, 1.05 µM. Take `CN(C)CCOC1(Cc2ccc(F)cc2)CCC(C(C)(C)C)CC1` (configuration not stated): the IC50 was 7.33 µM. For `O=C(/C=C/c1ccccc1)CC(O)(c1ccccc1)C(F)(F)C(F)F` (configuration not stated) the value was 1.15 µM.

On to `O=S(=O)(NC1=NCCCCC1)c1ccc2sc(NS(=O)(=O)c3ccc4ccccc4c3)nc2c1`, for which the IC50 entry is “inactive”. As for `c1ccc(CCC2=NCCn3cccc32)cc1`, the entry is “inactive”. On to `COc1ccc(NC(=O)C(c2ccnc3ccccc23)n2c(=O)c(-c3ccco3)nc3ccccc32)cc1` (configuration not stated), for which the IC50 was 8.17 µM. As for `CC1CCN(S(=O)(=O)c2ccc(NC(=O)Cc3ccccc3)cc2)CC1`, the figure is 9.47 µM.

The IC50 is the concentration needed to halve the response being measured.
